Assay results taken from patent US10954269B2, “Anti-inflammatory tripeptides” (Dr. August Wolff Gmbh & Co. KG Arzneimittel, priority 2013, dated 2021).

Experiments:
Conditions in all cases: substance 10^−9M
primary human T-cells = test: Cytokine secretion on protein level in activated primary human T-cells (13-plex FACS / Luminex, supernatant); type: cell-based
Outline: (§1)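 Primary T-cells from peripheral blood of healthy volunteers, or HaCaT cells, were activated with PMA/Ionomycin or IFN-γ for 48 h and treated with tripeptides. Supernatants were collected 48 h and 72 h after stimulation and cytokines (IL-1, IL-2, IL-6, IL-12p70, IL-17, IFN-γ, TNF-α) were measured by 13-plex FACS.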

[1] = test system: human keratinocyte cell line (HaCaT); test: Cytokine secretion on protein level in activated human keratinocyte cell line HaCaT (13-plex FACS / Luminex, supernatant); type: cell-based
Outline: as §1

primary murine T-cells = test: Cytokine secretion on protein level in activated primary murine T-cells (13-plex FACS / Luminex, supernatant); type: cell-based, C57BL/6 mice
Outline: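 T-cells from secondary lymphatic organs of naïve C57BL/6 mice, stimulated with PMA/Ionomycin or IFN-γ; supernatant cytokines measured by 13-plex FACS 48 h and 72 h after stimulation. In another run, PMA/Ionomycin-stimulated cells received compounds at 10^−7, 10^−9 and 10^−11 M, with IFN-γ, IL-17 and IL-10 measured by Luminex.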

[2] = primary human T-cells stimulated with IFN-γ
[3] = primary human T-cells stimulated with PBS
[4] = primary human T-cells stimulated with PMA/Ionomycin
[5] = HaCaT stimulated with PMA/Ionomycin
[6] = primary murine T-cells stimulated with IFN-γ
[7] = primary murine T-cells stimulated with PBS
[8] = primary murine T-cells stimulated with PMA/Ionomycin

With “N^α,N^α-dimethyl-(L)-Lys-(D)-Pro-N^α-methyl-(L)-Thr-NH2 [Example 4]” the IL-1 cytokine concentration (primary human T-cells; [2]) was 366.09 pg/mL, the IL-2 cytokine concentration (primary human T-cells; [2]) was 326.11 pg/mL and the IL-4 cytokine concentration (primary human T-cells; [2]) was 176.6 pg/mL. The IL-5 cytokine concentration (primary human T-cells; [2]) was 27.34 pg/mL, the IL-6 cytokine concentration (primary human T-cells; [2]) was 180.43 pg/mL and the IL-9 cytokine concentration (primary human T-cells; [2]) was 10.84 pg/mL. It also gave an IL-10 cytokine concentration (primary human T-cells; [2]) of 75.72 pg/mL, an IL-12p70 cytokine concentration (primary human T-cells; [2]) of 0 pg/mL and an IL-13 cytokine concentration (primary human T-cells; [2]) of 212.64 pg/mL. For the same substance, the IL-17 cytokine concentration (primary human T-cells; [2]) was 162.73 pg/mL, the IL-22 cytokine concentration (primary human T-cells; [2]) was 0 pg/mL and the TNF-α cytokine concentration (primary human T-cells; [2]) was 103.24 pg/mL. It also gave an IL-1 cytokine concentration (primary human T-cells; [3]) of 122.89 pg/mL, an IL-2 cytokine concentration (primary human T-cells; [3]) of 0 pg/mL and an IL-4 cytokine concentration (primary human T-cells; [3]) of 60.49 pg/mL. For the same substance, the IL-5 cytokine concentration (primary human T-cells; [3]) was 0 pg/mL, the IL-6 cytokine concentration (primary human T-cells; [3]) was 226.2 pg/mL and the IL-9 cytokine concentration (primary human T-cells; [3]) was 3.71 pg/mL. For the same substance, the IL-10 cytokine concentration (primary human T-cells; [3]) was 0 pg/mL, the IL-12p70 cytokine concentration (primary human T-cells; [3]) was 0 pg/mL and the IL-13 cytokine concentration (primary human T-cells; [3]) was 0 pg/mL. It also gave an IL-17 cytokine concentration (primary human T-cells; [3]) of 0 pg/mL, an IL-22 cytokine concentration (primary human T-cells; [3]) of 0 pg/mL and an INF-α cytokine concentration (primary human T-cells; [3]) of 0 pg/mL. For the same substance, the TNF-α cytokine concentration (primary human T-cells; [3]) was 0 pg/mL, the IL-1 cytokine concentration (primary human T-cells; [4]) was 689.99 pg/mL and the IL-2 cytokine concentration (primary human T-cells; [4]) was 1227.93 pg/mL. It also gave an IL-4 cytokine concentration (primary human T-cells; [4]) of 239.37 pg/mL, an IL-5 cytokine concentration (primary human T-cells; [4]) of 473.23 pg/mL and an IL-6 cytokine concentration (primary human T-cells; [4]) of 1280 pg/mL. The IL-9 cytokine concentration (primary human T-cells; [4]) was 239.43 pg/mL, the IL-10 cytokine concentration (primary human T-cells; [4]) was 417.95 pg/mL and the IL-12p70 cytokine concentration (primary human T-cells; [4]) was 0 pg/mL. For the same substance, the IL-13 cytokine concentration (primary human T-cells; [4]) was 1081.09 pg/mL, the IL-17 cytokine concentration (primary human T-cells; [4]) was 1356.78 pg/mL and the IL-22 cytokine concentration (primary human T-cells; [4]) was 0 pg/mL. The INF-α cytokine concentration (primary human T-cells; [4]) was 5384.11 pg/mL, the TNF-α cytokine concentration (primary human T-cells; [4]) was 4112.99 pg/mL and the IL-1 cytokine concentration ([1]; HaCaT stimulated with IFN-γ) was 0 pg/mL. It also gave an IL-2 cytokine concentration ([1]; HaCaT stimulated with IFN-γ) of 0 pg/mL, an IL-4 cytokine concentration ([1]; HaCaT stimulated with IFN-γ) of 0 pg/mL and an IL-5 cytokine concentration ([1]; HaCaT stimulated with IFN-γ) of 0 pg/mL. It also gave an IL-6 cytokine concentration ([1]; HaCaT stimulated with IFN-γ) of 224.07 pg/mL, an IL-9 cytokine concentration ([1]; HaCaT stimulated with IFN-γ) of 0 pg/mL and an IL-10 cytokine concentration ([1]; HaCaT stimulated with IFN-γ) of 0 pg/mL. For the same substance, the IL-12p70 cytokine concentration ([1]; HaCaT stimulated with IFN-γ) was 0 pg/mL, the IL-13 cytokine concentration ([1]; HaCaT stimulated with IFN-γ) was 0 pg/mL and the IL-17 cytokine concentration ([1]; HaCaT stimulated with IFN-γ) was 13.16 pg/mL. For the same substance, the IL-22 cytokine concentration ([1]; HaCaT stimulated with IFN-γ) was 0 pg/mL, the TNF-α cytokine concentration ([1]; HaCaT stimulated with IFN-γ) was 0 pg/mL and the IFN-γ cytokine concentration ([1]; HaCaT stimulated with PBS) was 0 pg/mL. The IL-1 cytokine concentration ([1]; HaCaT stimulated with PBS) was 0 pg/mL, the IL-2 cytokine concentration ([1]; HaCaT stimulated with PBS) was 18.85 pg/mL and the IL-4 cytokine concentration ([1]; HaCaT stimulated with PBS) was 109.04 pg/mL. The IL-5 cytokine concentration ([1]; HaCaT stimulated with PBS) was 0 pg/mL, the IL-6 cytokine concentration ([1]; HaCaT stimulated with PBS) was 80.55 pg/mL and the IL-9 cytokine concentration ([1]; HaCaT stimulated with PBS) was 2.87 pg/mL. The IL-10 cytokine concentration ([1]; HaCaT stimulated with PBS) was 61.87 pg/mL, the IL-12p70 cytokine concentration ([1]; HaCaT stimulated with PBS) was 0 pg/mL and the IL-13 cytokine concentration ([1]; HaCaT stimulated with PBS) was 123.68 pg/mL. The IL-17 cytokine concentration ([1]; HaCaT stimulated with PBS) was 12.85 pg/mL, the IL-22 cytokine concentration ([1]; HaCaT stimulated with PBS) was 0 pg/mL and the TNF-α cytokine concentration ([1]; HaCaT stimulated with PBS) was 0 pg/mL. It also gave an IFN-γ cytokine concentration [1, 5] of 39.23 pg/mL, an IL-1 cytokine concentration [1, 5] of 0 pg/mL and an IL-2 cytokine concentration [1, 5] of 0 pg/mL. For the same substance, the IL-4 cytokine concentration [1, 5] was 0 pg/mL, the IL-5 cytokine concentration [1, 5] was 16.77 pg/mL and the IL-6 cytokine concentration [1, 5] was 225.53 pg/mL. It also gave an IL-9 cytokine concentration [1, 5] of 0 pg/mL, an IL-10 cytokine concentration [1, 5] of 97.56 pg/mL and an IL-12p70 cytokine concentration [1, 5] of 0 pg/mL. It also gave an IL-13 cytokine concentration [1, 5] of 0 pg/mL, an IL-17 cytokine concentration [1, 5] of 28.83 pg/mL and an IL-22 cytokine concentration [1, 5] of 0 pg/mL. The TNF-α cytokine concentration [1, 5] was 3.93 pg/mL, the IL-1 cytokine concentration (primary murine T-cells; [6]) was 100.01 pg/mL and the IL-2 cytokine concentration (primary murine T-cells; [6]) was 206.76 pg/mL. The IL-4 cytokine concentration (primary murine T-cells; [6]) was 0 pg/mL, the IL-5 cytokine concentration (primary murine T-cells; [6]) was 486.86 pg/mL and the IL-6 cytokine concentration (primary murine T-cells; [6]) was 235.86 pg/mL. It also gave an IL-10 cytokine concentration (primary murine T-cells; [6]) of 1250.21 pg/mL, an IL-13 cytokine concentration (primary murine T-cells; [6]) of 0 pg/mL and an IL-17 cytokine concentration (primary murine T-cells; [6]) of 92.71 pg/mL. It also gave an IL-21 cytokine concentration (primary murine T-cells; [6]) of 814.33 pg/mL, an IL-22 cytokine concentration (primary murine T-cells; [6]) of 114.68 pg/mL and an IL-27 cytokine concentration (primary murine T-cells; [6]) of 138.81 pg/mL. The TNF-α cytokine concentration (primary murine T-cells; [6]) was 47.36 pg/mL, the IFN-γ cytokine concentration (primary murine T-cells; [7]) was 2456.98 pg/mL and the IL-1 cytokine concentration (primary murine T-cells; [7]) was 78.5 pg/mL. It also gave an IL-2 cytokine concentration (primary murine T-cells; [7]) of 147.3 pg/mL, an IL-4 cytokine concentration (primary murine T-cells; [7]) of 119.19 pg/mL and an IL-5 cytokine concentration (primary murine T-cells; [7]) of 377.16 pg/mL. For the same substance, the IL-6 cytokine concentration (primary murine T-cells; [7]) was 189.26 pg/mL, the IL-10 cytokine concentration (primary murine T-cells; [7]) was 1006.65 pg/mL and the IL-13 cytokine concentration (primary murine T-cells; [7]) was 0 pg/mL. For the same substance, the IL-17 cytokine concentration (primary murine T-cells; [7]) was 0 pg/mL, the IL-21 cytokine concentration (primary murine T-cells; [7]) was 330.42 pg/mL and the IL-22 cytokine concentration (primary murine T-cells; [7]) was 84.16 pg/mL. The IL-27 cytokine concentration (primary murine T-cells; [7]) was 329.85 pg/mL, the TNF-α cytokine concentration (primary murine T-cells; [7]) was 18.91 pg/mL and the IFN-γ cytokine concentration (primary murine T-cells; [8]) was 3234.33 pg/mL. The IL-1 cytokine concentration (primary murine T-cells; [8]) was 196.76 pg/mL, the IL-2 cytokine concentration (primary murine T-cells; [8]) was 292.52 pg/mL and the IL-4 cytokine concentration (primary murine T-cells; [8]) was 123.15 pg/mL. For the same substance, the IL-5 cytokine concentration (primary murine T-cells; [8]) was 465.44 pg/mL, the IL-6 cytokine concentration (primary murine T-cells; [8]) was 245.96 pg/mL and the IL-10 cytokine concentration (primary murine T-cells; [8]) was 1383.24 pg/mL. It also gave an IL-13 cytokine concentration (primary murine T-cells; [8]) of 0 pg/mL, an IL-17 cytokine concentration (primary murine T-cells; [8]) of 391.98 pg/mL and an IL-21 cytokine concentration (primary murine T-cells; [8]) of 987.02 pg/mL. It also gave an IL-22 cytokine concentration (primary murine T-cells; [8]) of 48.93 pg/mL, an IL-27 cytokine concentration (primary murine T-cells; [8]) of 80.01 pg/mL and a TNF-α cytokine concentration (primary murine T-cells; [8]) of 62.85 pg/mL.
